Source: the NIST ThermoML archive (doi:10.1021/je8001464)

Test: mn = molality of the nth substance listed, in mol/kg
Details: 101 kPa, Liquid

NCC(=O)O [2-aminoacetic acid] + O
Details | mass density [kg/m3]
288.15 K, m1 = 0.07326 | 1001.51
288.15 K, m1 = 0.1458 | 1003.85
288.15 K, m1 = 0.2326 | 1006.63
288.15 K, m1 = 0.2824 | 1008.21
288.15 K, m1 = 0.3277 | 1009.64
288.15 K, m1 = 0.4371 | 1013.07
298.15 K, m1 = 0.1536 | 1001.88
298.15 K, m1 = 0.2528 | 1004.96
298.15 K, m1 = 0.302 | 1006.47
298.15 K, m1 = 0.3469 | 1007.84
298.15 K, m1 = 0.4593 | 1011.25
308.15 K, m1 = 0.07746 | 993.053
308.15 K, m1 = 0.2534 | 998.473
308.15 K, m1 = 0.3017 | 999.939
308.15 K, m1 = 0.3466 | 1001.29
308.15 K, m1 = 0.4586 | 1004.65
318.15 K, m1 = 0.1525 | 994.942
318.15 K, m1 = 0.2564 | 998.093
318.15 K, m1 = 0.3091 | 999.679
318.15 K, m1 = 0.3656 | 1001.36
318.15 K, m1 = 0.4809 | 1004.79

[Cl-].[Cl-].[Zn+2] [zinc chloride] + O
mass density [kg/m3]
Details | 288.15 K | 298.15 K | 308.15 K | 318.15 K
m1 = 0.1 | 1011.64 | 1009.38 | 1005.93 | 1002.03
m1 = 0.5 | 1058.86 | 1055.44 | 1047.95 | 1043.29
m1 = 1 | 1113.88 | 1106.55 | 1097.59 | 1090.83
m1 = 1.5 | 1160.53 | 1152.82 | 1142.54 | 1135.27
